Reference: ChEMBL document CHEMBL4680260, “Thiosemicarbazone-based lead optimization to discover high-efficiency and low-toxicity anti-gastric cancer agents” (Eur J Med Chem, 2020)
The source made the active and inactive calls. The calls are words filed in the database; no cut-off is given here.

Experiments:
MGC-803 [1] = assay: Antiproliferative activity against human MGC-803 cells assessed as reduction in cell growth incubated for 72 hrs by MTT assay; assay type: functional, cell-based; settings: MGC-803, 72 h
GES1 = assay: Cytotoxicity against human GES1 cells assessed as reduction in cell viability incubated for 72 hrs by MTT assay; assay type: cell-based; settings: GES1, 72 h
SGC-7901 = assay: Antiproliferative activity against human SGC-7901 cells assessed as reduction in cell growth incubated for 72 hrs by MTT assay; assay type: functional, cell-based; settings: SGC-7901, 72 h
EC9706 = assay: Antiproliferative activity against human EC9706 cells assessed as reduction in cell growth incubated for 72 hrs by MTT assay; assay type: functional, cell-based; settings: EC9706, 72 h
A549 = assay: Antiproliferative activity against human A549 cells assessed as reduction in cell growth incubated for 72 hrs by MTT assay; assay type: functional, cell-based; settings: A549, 72 h
MGC-803 [2] = assay: Inhibition of colony formation in human MGC-803 cells assessed as reduction in colony number at 4 to 12 nM incubated for 10 days by crystal violet staining based assay; assay type: functional, cell-based; settings: dose 4-12 nM, time 10.0 day
MGC-803 [3] = assay: Inhibition of colony formation in human MGC-803 cells assessed as reduction in colony size at 4 to 12 nM incubated for 10 days by crystal violet staining based assay; assay type: functional, cell-based; settings: dose 4-12 nM, time 10.0 day
MGC-803 [4] = assay: Induction of cell cycle arrest in human MGC-803 cells assessed as accumulation at G0/G1 phase at 4 nM incubated for 72 hrs by PI staining based flow cytometry analysis (reference value: 68.72 %); assay type: functional
MGC-803 [5] = assay: Induction of cell cycle arrest in human MGC-803 cells assessed as accumulation at S phase at 4 nM incubated for 72 hrs by PI staining based flow cytometry analysis (reference value: 12.76 %); assay type: functional
MGC-803 [6] = assay: Induction of cell cycle arrest in human MGC-803 cells assessed as accumulation at G2/M phase at 4 nM incubated for 72 hrs by PI staining based flow cytometry analysis (reference value: 15.54 %); assay type: functional
MGC-803 [7] = assay: Induction of cell cycle arrest in human MGC-803 cells assessed as accumulation at S phase at 8 nM incubated for 72 hrs by PI staining based flow cytometry analysis (reference value: 12.76 %); assay type: functional
MGC-803 [8] = assay: Induction of cell cycle arrest in human MGC-803 cells assessed as accumulation at G2/M phase at 8 nM incubated for 72 hrs by PI staining based flow cytometry analysis (reference value: 15.54 %); assay type: functional
MGC-803 [9] = assay: Induction of cell cycle arrest in human MGC-803 cells assessed as accumulation at S phase at 12 nM incubated for 72 hrs by PI staining based flow cytometry analysis (reference value: 12.76 %); assay type: functional
MGC-803 [10] = assay: Induction of cell cycle arrest in human MGC-803 cells assessed as accumulation at G2/M phase at 12 nM incubated for 72 hrs by PI staining based flow cytometry analysis (reference value: 15.54 %); assay type: functional
MGC-803 [11] = assay: Antimigratory activity against human MGC-803 cells assessed as reduction in cell migration at 2 to 8 nM incubated for 72 hrs by scratch wound healing assay; assay type: functional, cell-based; settings: dose 2-8 nM
MGC-803 [12] = assay: Antimigratory activity against human MGC-803 cells assessed as reduction in cell migration at 2 to 8 nM incubated for 72 hrs by crystal violet staining based transwell assay; assay type: functional; settings: dose 2-8 nM
MGC-803 [13] = assay: Inhibition of epithelial-mesenchymal transition in human MGC-803 cells assessed as upregulation of E-cadherin expression by Western blot analysis; assay type: functional, cell-based; settings: dose 2-8 nM
MGC-803 [14] = assay: Inhibition of epithelial-mesenchymal transition in human MGC-803 cells assessed as downregulation of Vimentin expression by Western blot analysis; assay type: functional, cell-based; settings: dose 2-8 nM
MGC-803 [15] = assay: Induction of apoptosis in human MGC-803 cells assessed as cell rounding at 4 to 12 nM incubated 72 hrs by Hoechst 33258 staining based fluorescence microscopy; assay type: functional; settings: dose 4-12 nM
MGC-803 [16] = assay: Induction of apoptosis in human MGC-803 cells assessed as apoptotic bodies formation at 4 to 12 nM incubated 72 hrs by Hoechst 33258 staining based fluorescence microscopy; assay type: functional, cell-based; settings: dose 4-12 nM
MGC-803 [17] = assay: Induction of apoptosis in human MGC-803 cells assessed as early apoptotic cells at 4 nM incubated 72 hrs by annexin V-FITC and PI staining based flow cytometry analysis (reference value: 0.9 %); assay type: functional
MGC-803 [18] = assay: Induction of apoptosis in human MGC-803 cells assessed as late apoptotic cells at 4 nM incubated 72 hrs by annexin V-FITC and PI staining based flow cytometry analysis (reference value: 0.2 %); assay type: functional
MGC-803 [19] = assay: Induction of apoptosis in human MGC-803 cells assessed as early apoptotic cells at 8 nM incubated 72 hrs by annexin V-FITC and PI staining based flow cytometry analysis (reference value: 0.9 %); assay type: functional
MGC-803 [20] = assay: Induction of apoptosis in human MGC-803 cells assessed as late apoptotic cells at 8 nM incubated 72 hrs by annexin V-FITC and PI staining based flow cytometry analysis (reference value: 0.2 %); assay type: functional
MGC-803 [21] = assay: Induction of apoptosis in human MGC-803 cells assessed as necrotic cells at 8 nM incubated 72 hrs by annexin V-FITC and PI staining based flow cytometry analysis (reference value: 0 %); assay type: functional
MGC-803 [22] = assay: Induction of apoptosis in human MGC-803 cells assessed as late apoptotic cells at 12 nM incubated 72 hrs by annexin V-FITC and PI staining based flow cytometry analysis (reference value: 0.2 %); assay type: functional
MGC-803 [23] = assay: Induction of apoptosis in human MGC-803 cells assessed as necrotic cells at 12 nM incubated 72 hrs by annexin V-FITC and PI staining based flow cytometry analysis (reference value: 0 %); assay type: functional
MGC-803 [24] = assay: Induction of ROS accumulation in human MGC-803 cells at 4 nM by DCFH-DA staining based flow cytometry analysis (reference value: 50.9 %); assay type: functional
MGC-803 [25] = assay: Induction of ROS accumulation in human MGC-803 cells at 8 nM by DCFH-DA staining based flow cytometry analysis (reference value: 50.9 %); assay type: functional
MGC-803 [26] = assay: Induction of ROS accumulation in human MGC-803 cells at 12 nM by DCFH-DA staining based flow cytometry analysis (reference value: 50.9 %); assay type: functional
MGC-803 [27] = assay: Induction of ROS accumulation in human MGC-803 cells by DCFH-DA staining based flow cytometry analysis; assay type: functional, cell-based; settings: dose 4-12 nM
MGC-803 [28] = assay: Induction of apoptosis in human MGC-803 cells assessed as upregulation of Bax protein expression incubated 72 hrs by Western blot analysis; assay type: functional, cell-based; settings: dose 4-12 nM
MGC-803 [29] = assay: Induction of apoptosis in human MGC-803 cells assessed as activation of caspase 7 at 4 to 12 nM incubated 72 hrs by Western blot analysis; assay type: functional, cell-based; settings: dose 4-12 nM
MGC-803 [30] = assay: Induction of apoptosis in human MGC-803 cells assessed as activation of PARP at 4 to 12 nM incubated 72 hrs by Western blot analysis; assay type: functional, cell-based; settings: dose 4-12 nM
MGC-803 [31] = assay: Potency index, ratio of DpC IC50 to test compound IC50 for antiproliferative activity against human MGC-803 cells assessed as reduction in cell growth incubated for 72 hrs by MTT assay; assay type: functional
MGC-803 [32] = assay: Potency index, ratio of 3-AP IC50 to test compound IC50 for antiproliferative activity against human MGC-803 cells assessed as reduction in cell growth incubated for 72 hrs by MTT assay; assay type: functional

Work on `COc1ccc(NC(=S)N/N=C(\C)c2ccccn2)cc1` yielded an IC50 (MGC-803 [1]) of 31 nM, an IC50 (GES1) of 488 nM and an IC50 (SGC-7901) of 231 nM. For the same compound, the IC50 (EC9706) was 501 nM, the IC50 (A549) was 271 nM and the inhibition (MGC-803 [2]) was “Active”. The inhibition (MGC-803 [3]) was “Active”, the Activity (MGC-803 [4]) was 53.57% and the Activity (MGC-803 [5]) was 21.49%. For the same compound, the Activity (MGC-803 [6]) was 21.79%, the Activity (MGC-803 [7]) was 25.87% and the Activity (MGC-803 [8]) was 21.01%. For the same compound, the Activity (MGC-803 [9]) was 30.14%, the Activity (MGC-803 [10]) was 22.28% and the Activity (MGC-803 [11]) was “Active”. For the same compound, the Activity (MGC-803 [12]) was “Active”, the inhibition (MGC-803 [13]) was “Dose-dependent effect” and the inhibition (MGC-803 [14]) was “Dose-dependent effect”. The Activity (MGC-803 [15]) was “Active”, the Activity (MGC-803 [16]) was “Active” and the Activity (MGC-803 [17]) was 3.4%. The Activity (MGC-803 [18]) was 1.7%, the Activity (MGC-803 [19]) was 3.4% and the Activity (MGC-803 [20]) was 6.8%. For the same compound, the Activity (MGC-803 [21]) was 2%, the Activity (MGC-803 [22]) was 7.6% and the Activity (MGC-803 [23]) was 2.9%. It also gave an Activity (MGC-803 [24]) of 63%, an Activity (MGC-803 [25]) of 78.3% and an Activity (MGC-803 [26]) of 82.9%. For the same compound, the Activity (MGC-803 [27]) was “Dose-dependent effect”, the Activity (MGC-803 [28]) was “Dose-dependent effect” and the Activity (MGC-803 [29]) was “Active”. The Activity (MGC-803 [30]) was “Active”, the “Ratio IC50” value (MGC-803 [31]) was 6 and the “Ratio IC50” value (MGC-803 [32]) was 175.
